{"source": "ChEMBL document CHEMBL1201862", "about": "“PubChem BioAssay data set” (2004)", "experiment_in_all_cases": "NCI tumour cell line growth inhibition, 48 h", "key": {"[1]": {"test_system": "786-0"}, "[2]": {"test_system": "A498"}, "[3]": {"test_system": "A549"}, "[4]": {"test_system": "ACHN"}, "[5]": {"test_system": "CAKI-1"}, "[6]": {"test_system": "CCRF-CEM"}, "[7]": {"test_system": "COLO 205"}, "[8]": {"test_system": "DLD-1"}, "[9]": {"test_system": "DMS-273"}, "[10]": {"test_system": "EKVX"}, "[11]": {"test_system": "HCC 2998"}, "[12]": {"test_system": "HCT-116"}, "[13]": {"test_system": "HCT-15"}, "[14]": {"test_system": "HL-60"}, "[15]": {"test_system": "HOP-18"}, "[16]": {"test_system": "HOP-62"}, "[17]": {"test_system": "HOP-92"}, "[18]": {"test_system": "HT-29"}, "[19]": {"test_system": "IGROV-1"}, "[20]": {"test_system": "K562"}, "[21]": {"test_system": "KM-20L2"}, "[22]": {"test_system": "KM12"}, "[23]": {"test_system": "LXFL 529"}, "[24]": {"test_system": "M14"}, "[25]": {"test_system": "M19-MEL"}, "[26]": {"test_system": "MOLT-4"}, "[27]": {"test_system": "Malme-3M"}, "[28]": {"test_system": "NCI-H226"}, "[29]": {"test_system": "NCI-H23"}, "[30]": {"test_system": "NCI-H460"}, "[31]": {"test_system": "NCI-H522"}, "[32]": {"test_system": "OVCAR-3"}, "[33]": {"test_system": "OVCAR-4"}, "[34]": {"test_system": "OVCAR-5"}, "[35]": {"test_system": "OVCAR-8"}, "[36]": {"test_system": "RPMI-8226"}, "[37]": {"test_system": "RXF 393"}, "[38]": {"test_system": "RXF 631"}, "[39]": {"test_system": "SF-268"}, "[40]": {"test_system": "SF-295"}, "[41]": {"test_system": "SF-539"}, "[42]": {"test_system": "SK-MEL-2"}, "[43]": {"test_system": "SK-MEL-5"}, "[44]": {"test_system": "SK-OV-3"}, "[45]": {"test_system": "SN12C"}, "[46]": {"test_system": "SNB-19"}, "[47]": {"test_system": "SNB-75"}, "[48]": {"test_system": "SNB-78"}, "[49]": {"test_system": "SR"}, "[50]": {"test_system": "SW-620"}, "[51]": {"test_system": "TK-10"}, "[52]": {"test_system": "U-251"}, "[53]": {"test_system": "UACC-257"}, "[54]": {"test_system": "UACC-62"}, "[55]": {"test_system": "UO-31"}, "[56]": {"test_system": "XF498"}}, "note": "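Values below derive from 48-hour exposures of cells grown in 96-well plates, with endpoints linearly interpolated between the two concentrations bracketing the appropriate inhibition level. GI50: concentration for 50% inhibition of growth.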 Active and inactive are the calls of the source. No stated cut-off is given here; in the data, active = GI50 up to about 1.1 µM and inactive = higher.", "data": [{"molecule": "C[n+]1c2ccccc2c(CNC(CS)C(=O)O)c2ccccc21", "note": "(stereo unspecified)", "values": [{"measurement": "GI50", "setting": "[1]", "value": "31.8 µM (inactive)"}, {"measurement": "GI50", "setting": "[2]", "value": "17.2 µM (inactive)"}, {"measurement": "GI50", "setting": "[3]", "value": "30.3 µM (inactive)"}, {"measurement": "GI50", "setting": "[4]", "value": "27.2 µM (inactive)"}, {"measurement": "GI50", "setting": "[5]", "value": "29.6 µM (inactive)"}, {"measurement": "GI50", "setting": "[6]", "value": "24.4 µM (inactive)"}, {"measurement": "GI50", "setting": "[7]", "value": "19.2 µM (inactive)"}, {"measurement": "GI50", "setting": "[8]", "value": "24.6 µM (inactive)"}, {"measurement": "GI50", "setting": "[9]", "value": "18.5 µM (inactive)"}, {"measurement": "GI50", "setting": "[10]", "value": "19 µM (inactive)"}, {"measurement": "GI50", "setting": "[11]", "value": "31.5 µM (inactive)"}, {"measurement": "GI50", "setting": "[12]", "value": "17.5 µM (inactive)"}, {"measurement": "GI50", "setting": "[13]", "value": 20.7, "unit": "µM"}, {"measurement": "GI50", "setting": "[14]", "value": "17.3 µM (inactive)"}, {"measurement": "GI50", "setting": "[15]", "value": "49.1 µM (inactive)"}, {"measurement": "GI50", "setting": "[16]", "value": "15.5 µM (inactive)"}, {"measurement": "GI50", "setting": "[17]", "value": "18.7 µM (inactive)"}, {"measurement": "GI50", "setting": "[18]", "value": "29.3 µM (inactive)"}, {"measurement": "GI50", "setting": "[19]", "value": "18.8 µM (inactive)"}, {"measurement": "GI50", "setting": "[20]", "value": "31.8 µM (inactive)"}, {"measurement": "GI50", "setting": "[21]", "value": "20.4 µM (inactive)"}, {"measurement": "GI50", "setting": "[22]", "value": "19.7 µM (inactive)"}, {"measurement": "GI50", "setting": "[23]", "value": "32.4 µM (inactive)"}, {"measurement": "GI50", "setting": "[24]", "value": "38.9 µM (inactive)"}, {"measurement": "GI50", "setting": "[25]", "value": "27.7 µM (inactive)"}, {"measurement": "GI50", "setting": "[26]", "value": "12.4 µM (inactive)"}, {"measurement": "GI50", "setting": "[27]", "value": "37.8 µM (inactive)"}, {"measurement": "GI50", "setting": "[28]", "value": "29.8 µM (inactive)"}, {"measurement": "GI50", "setting": "[29]", "value": "25.9 µM (inactive)"}, {"measurement": "GI50", "setting": "[30]", "value": "21.8 µM (inactive)"}, {"measurement": "GI50", "setting": "[31]", "value": "17.8 µM (inactive)"}, {"measurement": "GI50", "setting": "[32]", "value": "24.4 µM (inactive)"}, {"measurement": "GI50", "setting": "[33]", "value": "28.1 µM (inactive)"}, {"measurement": "GI50", "setting": "[34]", "value": "44.5 µM (inactive)"}, {"measurement": "GI50", "setting": "[35]", "value": "25.4 µM (inactive)"}, {"measurement": "GI50", "setting": "[36]", "value": "16.9 µM (inactive)"}, {"measurement": "GI50", "setting": "[37]", "value": "24.1 µM (inactive)"}, {"measurement": "GI50", "setting": "[38]", "value": "24.9 µM (inactive)"}, {"measurement": "GI50", "setting": "[39]", "value": "20.4 µM (inactive)"}, {"measurement": "GI50", "setting": "[40]", "value": "24.2 µM (inactive)"}, {"measurement": "GI50", "setting": "[41]", "value": "18.4 µM (inactive)"}, {"measurement": "GI50", "setting": "[42]", "value": "26.8 µM (inactive)"}, {"measurement": "GI50", "setting": "[43]", "value": "> 10 µM (inactive)"}, {"measurement": "GI50", "setting": "[44]", "value": "23.1 µM (inactive)"}, {"measurement": "GI50", "setting": "[45]", "value": "30.5 µM (inactive)"}, {"measurement": "GI50", "setting": "[46]", "value": "32.7 µM (inactive)"}, {"measurement": "GI50", "setting": "[47]", "value": "21.7 µM (inactive)"}, {"measurement": "GI50", "setting": "[48]", "value": "34.3 µM (inactive)"}, {"measurement": "GI50", "setting": "[49]", "value": "12.7 µM (inactive)"}, {"measurement": "GI50", "setting": "[50]", "value": "32.4 µM (inactive)"}, {"measurement": "GI50", "setting": "[51]", "value": "39.1 µM (inactive)"}, {"measurement": "GI50", "setting": "[52]", "value": "24.2 µM (inactive)"}, {"measurement": "GI50", "setting": "[53]", "value": "38.5 µM (inactive)"}, {"measurement": "GI50", "setting": "[54]", "value": "14.6 µM (inactive)"}, {"measurement": "GI50", "setting": "[55]", "value": "18 µM (inactive)"}, {"measurement": "GI50", "setting": "[56]", "value": "24.3 µM (inactive)"}]}]}
